# Biological target: T1, streptavidin (Streptomyces avidinii, UniProt P22629)
# T1 construct: purchased GE Healthcare (Little Chalfont, UK)
# Assay: Cy5-streptavidin binding on HotSpot discovery array, 5-mer L-peptide library
# Settings: 5-mer L-peptide library array, Cy5-streptavidin; from average of three arrays
# In short: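 Array of 2,476,099 5-mer peptides (19 amino acids, no cysteine) with Gly-Ser linkers, probed overnight at 4 °C with 0.5 µg/ml Cy5-streptavidin in Tris pH 7.4 buffer containing casein or BSA plus Tween-20. Cy5 fluorescence read at 635 nm; peptides selected by signal-to-background >4 across three arrays.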
# T1 sequence (P22629 25-183): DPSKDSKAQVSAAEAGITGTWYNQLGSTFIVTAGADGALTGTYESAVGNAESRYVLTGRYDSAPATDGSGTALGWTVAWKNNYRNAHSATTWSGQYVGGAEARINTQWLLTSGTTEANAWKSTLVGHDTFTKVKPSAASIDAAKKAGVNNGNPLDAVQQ
row,Substance,S/B (signal to background ratio)
1,RHPMS,30.8
2,NHPQM,39.3
3,LGPFH [L-amino acid 5-mer array peptide],51.1
4,NMHPQ,136.2
5,YHPMV,20.3
6,YHPQT,25.8
7,PMHPQ,135.3
8,WNHPQ,215.8
9,MNHPQ,166.1
10,QFHPQ,180.1
11,VHPQF,135.2
12,NRHPM,48.6
13,HPQQG,47.0
14,EPHPM,23.1
15,DHPQH,31.2
16,HPQVF,56.9
17,HNHPM,37.6
18,HPQVR,28.4
19,EDHPQ,34.6

row,Substance,S/B (signal to background ratio)
1,MHPMS,25.8
2,AHPQM,32.6
3,AHPQQ,34.0
4,GHPQF,125.7
5,SLHPQ,133.4
6,EWHPM,38.1
7,YHHPQ,183.0
8,IQHPM,50.9
9,RHPQF,125.0
10,MHPQN,120.0
11,LNHPQ,152.2
12,HPQAG,125.6
13,ALHPQ,123.6
14,TYHPQ,168.9
15,DEHPQ,26.0
16,HPQAF,40.6
17,FHPMV,27.2
18,HPQGE,40.1

# Same assay, conditions: 5-mer L-peptide library array, Cy5-streptavidin; from the average of three arrays
row,Substance,S/B (signal to background ratio)
1,HDHPQ,112.6
2,WVHPM,78.5
3,HPQFQ,90.6
4,THHPM,58.0
5,HHHPM,67.1
6,HPQNT,67.6
7,FAHPM,90.2
8,WWHPQ,111.4
9,HHPMA,76.0
10,EHPQA,70.0
11,LHPQV,74.5
12,QEHPQ,63.4
13,FHHPM,95.4
14,RGHPM,58.1
15,DTHPQ,68.3
16,YGHPM,108.1
17,LQHPM,62.8
18,HPMGG,60.6
19,SVHPQ,116.5
20,GIHPQ,100.2

# Same assay, conditions: 5-mer L-peptide library, from the average of three arrays
row,Substance,S/B (signal to background ratio)
1,AHPQP,4.1
2,LAFFH [L-amino acid 5-mer array peptide],4.9
3,HPMQH,4.5
4,QHPMK,4.4
5,HPMST,4.2
6,YHFPQ,4.9
7,MVQHF [L-amino acid 5-mer array peptide],5.2

# Same assay, conditions: average of three arrays, L-peptide 5-mer library
row,Substance,S/B (signal to background ratio)
1,LAFFH [L-amino acid 5-mer array peptide],4.9
2,LGPFH [L-amino acid 5-mer array peptide],51.1
3,LGKYH [L-amino acid 5-mer array peptide],6.7
4,MVQHF [L-amino acid 5-mer array peptide],5.2
5,GYWTD [L-amino acid 5-mer array peptide],8.4

# Same assay, conditions: signal to background ratio; 5-mer L-peptide library array, Cy5-streptavidin
row,Substance,S/B
1,HPQPG,5.6
2,DSHPM,17.9
3,KHPQT,7.6
4,HPQQD,7.4
5,MHPMR,10.8
6,LHPMI,5.3
7,HPAFM,5.7
8,HPQYQ,15.5
9,VVHPM,15.5
10,NHPQK,14.8
11,HPQRH,8.8
12,HPMHG,13.1
13,PMPDE,6.3
14,QHPMR,9.5
15,LGKYH [L-amino acid 5-mer array peptide],6.7
16,HPQLG,9.1
17,HPLPW,8.0
18,GYWTD [L-amino acid 5-mer array peptide],8.4
